SMILES strings stand for the structures. Converted amounts (≈) assume the structure as drawn.

As usually defined, the MIC is the lowest concentration that inhibits growth of the organism.

One experiment relates to Candida albicans. In words: Antifungal activity against Candida albicans ATCC 90029 by broth macrodilution method. In kind it is functional.
A further experiment deals with Staphylococcus aureus. In words: Antibacterial activity against Staphylococcus aureus ATCC 29213 by broth macrodilution method. The format is functional.

In the case of `CCCCC(C)c1cc(O)c(CC)c(O)c1C=O` (configuration not stated) [ANGUILLOSPORAL], the MIC in the experiment on Candida albicans turned out to be 58 µg/mL (≈ 232 µM); against Staphylococcus aureus it was 4 µg/mL (≈ 16 µM).

The values are drawn from ChEMBL document CHEMBL1159297, “Anguillosporal, a new antibacterial and antifungal metabolite from the freshwater fungus Anguillospora longissima” (1995).
